Data as given in patent publication US10172837B2, “Insulin sensitisers and methods of treatment” (NAIA Metabolic, Inc., priority 2007, dated 2019).

Experiments:
3T3-L1 adipocytes = assay: 2-Deoxyglucose uptake by 3T3-L1 adipocytes; assay type: cell-based; settings: for 2-Deoxyglucose uptake (Normalised: Vehicle with no insulin = 100%): DCP 10 μM
Description: Dichlorphenamide was added during serum-starvation. […] Insulin at 0, 0.5 and 10 nM was added for 20 min at 37° C. Uptake of 50 μM 2-deoxy glucose and 0.5 μCi 2-deoxy-[U-^3H] glucose (NEN, PerkinElmer Life Sciences) per well was measured over the final 10 min of insulin stimulation. […] Counts per minute (cpm) were measured by scintillator counter. […] The data is expressed as a mean±SEM. The statistical analysis was performed using an umpaired t-test (2-tailed).

[1] = tested on: obese Psammomys obesus (Israeli sand rats); assay: Oral glucose tolerance test in obese Psammomys obesus; assay type: in vivo
Description: The outbred Israeli sand rat, Psammomys obesus is a unique animal model for the study of obesity and diabetes. When housed under standard laboratory conditions, a proportion of Israeli sand rats become obese and develop type 2 diabetes spontaneously, without requiring high caloric feeding like the diet-induced obese mouse model, or as a consequence of a mutation in a particular gene as in the db/db mouse model. In this regard their evolution into a diabetic state closely resembles the environmental and polygenic human condition. Type 2 diabetic P. obesus are also profoundly insulin resistant, as measured by the area under the blood glucose curve during an oral glucose tolerance test (OGTT). In addition, a proportion of the animals remain lean and healthy under these same conditions, while others develop a range of intermediate phenotypes. This response is similar to that seen in human populations. Diabetic P. obesus are characterised by having elevated blood glucose levels. […] USA). […] Glucose was measured in whole blood using a YSI glucose analyser (Model #2300 STAT PLUS, Yellow Springs Instruments Co., Ohio, USA). The instrument takes a sample aliquot of 25 μl and is calibrated every 10 samples using 5.55 and 8.33 mmol/L glucose standards. The analyser utilises a probe fitted with a 3-layer membrane containing an immobilised enzyme. J3-D-glucose is oxidised by glucose oxidase, which is immobilised on a polycarbonate cellulose membrane, to form glucono-( )-lactone and hydrogen peroxide. The hydrogen peroxide in turn, is oxidised at the platinum anode, producing electrons. The electron flow is linearly proportional to the steady state hydrogen peroxide concentration and therefore to the concentration of glucose in the sample. Insulin levels were measured in plasma obtained after the […] heparin-coated tubes. Plasma insulin concentrations were determined using a commercially-available double antibody radio-immunoassay (RIA) kit. (Linco Research Inc., USA). […] Solutions were then incubated for 2 hours before adding 1 ml of sheep anti-guinea pig antibody (second antibody) and left to incubate again for 30 min at room temperature. Bound and free insulin were then separated by centrifugation at 3,500 g for 20 min (Beckman Centrifuge Model J6B, Beckman Instruments, […], Australia), leaving the bound insulin in a pellet at the bottom of the tube following aspiration of each sample. A gamma counter (Minaxi g Auto-gamma 5000 series. Packard Instrument Company, IL, USA) with a counting time of 1 min was then used to measure the radioactivity of the solid phase pellet.

[2] = tested on: Diet-Induced Obese (DIO) Mice; assay: Fasting plasma glucose in diet-induced obese mice; assay type: in vivo, Mus Musculus
[3] = tested on: Diet-Induced Obese (DIO) Mice; assay: ipGTT (glucose tolerance) in diet-induced obese mice; assay type: in vivo, Mus Musculus
[4] = Body weight of treated diet-induced obese mice; assay type: in vivo, Mus Musculus; settings: Day 0 or Day 13, DIO mice
Description: (§1) Male C57Bl/6J mice were obtained at 8 weeks of age from Animal Resources Centre (Canning Vale, Western Australia). Animals were individually housed and allowed free movement and ad libitum access to water and food. Animals were maintained on a 12 hour light (6 am-6 pm) and 12 hour dark (6 pm-6 am) cycle. Animals were monitored daily. Body weight, food and water intake were recorded 3 times a week.

db/db mice = assay: Fasting plasma glucose in db/db mice; assay type: in vivo, Mus Musculus; settings: for FPG Day 0: Methazolamide 20 mg/kg group
Description: The db/db mouse model comprises mice with a homozygous mutation of the leptin receptor gene that ablates leptin signalling in the hypothalamus and elsewhere. The db/db mouse model is commonly used to study the genetic and physiological mechanisms of obesity and type II diabetes. […] Leptin acts through the leptin receptor to control whole-body energy homeostasis by regulating both appetite and energy expenditure. Loss of function of the leptin receptor gene results in hyperphagia and slower metabolism, leading to obesity and eventually diabetes. […] Dosing solutions of the test articles: Methazolamide, Metformin and Methazolamide/Metformin were prepared fresh on each dosing day and stored at room temperature, protected from light. The compound was formulated in sterile vehicle: […] Stock solutions were prepared by dissolving the compound in NMP:PEG300 (1:2, v/v). Saline was added to the stock solution prior to administration of the compound. The solutions were mixed by vortexing immediately prior to dosing to ensure a homogeneous suspension of the compound. Male C57Bl/6J db/db mice were obtained at 10 weeks of age from Animal Resources Centre ([…], Western Australia). Animals were individually housed and allowed free movement and ad libitum access to water and food. Animals were maintained on a 12 hour light (6 am-6 pm) and 12 hour dark (6 pm-6 am) cycle. Animals were monitored daily. Body weight, food and water intake were recorded 3 times a week. Mice were fed a standard chow diet, and used after a two week acclimatisation period. […] The fasting plasma glucose levels of the animals was tested prior to commencement of the study and then every 3-4 days during dosing. The animals were fasted for a period of 4 hours after dosing and prior to the taking of a blood sample via a tail nick. Blood glucose levels were monitored using commercially available glucometers (Accuchek Advantage, Roche) based on the electric current generated when a blood drop is spotted on a test strip resulting in conversion of the glucose present in the sample to gluconolactone by the glucose dehydrogenase enzyme, in the presence of the coenzyme (PQQ).

[5] = Body weight of treated db/db mice; assay type: in vivo, Mus Musculus; settings: Day 0, Day 8 or Day 18, db/db mice
Description: as §1, with “C57Bl/6J db/db” for “C57Bl/6J”, “10” for “8”, “([…],” for “(Canning Vale,”, “week. Mice were fed a standard chow diet, and used after a two week acclimatisation period.” for “week.”

[6] = 20 mg/Kg DCP oral gavage, 0 min after glucose gavage
[7] = 20 mg/Kg DCP oral gavage, 15 min after glucose gavage
[8] = 20 mg/Kg DCP oral gavage, 30 min after glucose gavage
[9] = 20 mg/Kg DCP oral gavage, 45 min after glucose gavage
[10] = 20 mg/Kg DCP oral gavage, 60 min after glucose gavage
[11] = 20 mg/Kg DCP oral gavage, 90 min after glucose gavage
[12] = dichlorphenamide 20 mg/kg oral gavage
[13] = Dichlorphenamide 50 mg/kg oral gavage
[14] = Methazolamide 10 mg/kg oral gavage (Table 5-1)
[15] = Methazolamide 10 mg/kg oral gavage (Table 8-1)
[16] = Methazolamide 20 mg/kg group, before dosing
[17] = Methazolamide 20 mg/kg oral gavage
[18] = Methazolamide 50 mg/kg group, before dosing
[19] = Methazolamide 50 mg/kg oral gavage
[20] = Methazolamide 100 mg/kg group, before dosing
[21] = Methazolamide 100 mg/kg oral gavage
[22] = Methazolamide 10 mg/kg oral gavage (Table 5-2)
[23] = Methazolamide 10 mg/kg oral gavage (Table 8-2)

SMILES: NS(=O)(=O)c1cc(Cl)c(Cl)c(S(N)(=O)=O)c1 [Dichlorphenamide]
- 2-Deoxyglucose uptake (Normalised: Vehicle with no insulin = 100%) (3T3-L1 adipocytes; 0.5 nM Insulin): 1468 ± 400^2%
- 2-Deoxyglucose uptake (Normalised: Vehicle with no insulin = 100%) (3T3-L1 adipocytes; 10 nM Insulin): 1826 ± 97 ^ %
- 2-Deoxyglucose uptake (Normalised: Vehicle with no insulin = 100%) (3T3-L1 adipocytes; no insulin (basal)): 508 ± 57^1%
- effect on basal and insulin stimulated 2-deoxyglucose uptake (3T3-L1 adipocytes; basal, 0.5 nM and 10 nM insulin): enhanced
- Plasma Glucose [1, 6]: 3.4 ± 0.2 mM
- Plasma Insulin [1, 6]: 48 ± 15 mU/ml
- Plasma Glucose [1, 7]: 5.4 ± 0.2 mM
- Plasma Insulin [1, 7]: 141 ± 21 mU/ml
- Plasma Glucose [1, 8]: 4.7 ± 0.4 mM
- Plasma Insulin [1, 8]: 149 ± 49 mU/ml
- Plasma Glucose [1, 9]: 5.1 ± 0.3 mM
- Plasma Insulin [1, 9]: 123 ± 39 mU/ml
- Plasma Glucose [1, 10]: 4.7 ± 0.4 mM
- Plasma Insulin [1, 10]: 202 ± 46 mU/ml
- Plasma Glucose [1, 11]: 4.3 ± 0.4 mM
- Plasma Insulin [1, 11]: 117 ± 22 mU/ml
- Plasma Glucose AUC ([1]; 20 mg/Kg DCP oral gavage, OGTT 0-90 min): 119 ± 16 mM·min
- Plasma Insulin AUC ([1]; 20 mg/Kg DCP oral gavage, OGTT 0-90 min, listed as head prints (mM · min)): 8,548 ± 2441
- effect on glucose tolerance in oral glucose tolerance test ([1]; area under plasma glucose and plasma insulin curve): increased the glucose tolerance
- effect on fasting plasma glucose levels of diet-induced obese mice [2]: reduced the fasting plasma glucose levels
- FPG Day −1 ([2]; dichlorphenamide 20 mg/kg group, before dosing): 10.05 ± 0.2 mM
- Delta FPG Treatment Day 14 vs Day −1 [2, 12]: −17%^1
- Delta FPG Treatment vs Vehicle Day 14 [2, 12]: −11%^2
- FPG Day 14 [2, 12]: 8.35 ± 0.2 mM
- effect on glucose tolerance of diet-induced obese mice [3]: improves the glucose tolerance
- AUC Day −1 ([3]; Dichlorphenamide 20 mg/kg group, before dosing, in mM·min): 1350 ± 56
- AUC Day 19 ([3]; Dichlorphenamide 20 mg/kg oral gavage, in mM·min): 832 ± 80
- AUC Day −1 ([3]; Dichlorphenamide 50 mg/kg group, before dosing, in mM·min): 1345 ± 73
- AUC Day 19 Treat vs Veh [3, 13]: −8%
- Delta AUC Day 19 vs Day −1 [3, 13]: −32%^1
- AUC Day 19 ([3]; Dichlorphenamide 50 mg/kg oral gavage, in mM·min): 908 ± 38
- AUC Day 19 Treat vs Veh [3, 12]: −16%
- Delta AUC Day 19 vs Day −1 [3, 12]: −38%^2

SMILES: CC(=O)/N=c1\sc(S(N)(=O)=O)nn1C [Methazolamide, 5-acetylimino-4-methyl-Δ^2-1,3,4-thiadiazoline-2-sulfonamide]
- effect on fasting plasma glucose levels of diet-induced obese mice [2]: reduced the fasting plasma glucose levels
- FPG Day −1 ([2]; Methazolamide 10 mg/kg group, before dosing (Table 5-1)): 6.92 ± 0.55 mM
- FPG Day −1 ([2]; Methazolamide 10 mg/kg group, before dosing (Table 8-1)): 6.1 ± 0.5 mM
- Delta FPG Treatment Day 13 vs Day −1 [2, 14]: 12%
- FPG Day 13 [2, 14]: 7.75 ± 0.43 mM
- FPG Treatment vs Vehicle Day 13 [2, 14]: 1%
- Delta FPG Treatment Day 13 vs Day −1 [2, 15]: 8%
- Delta FPG Treatment vs Vehicle Day 13 [2, 15]: −12%
- FPG Day 13 [2, 15]: 6.6 ± 0.4 mM
- FPG Day −1 [2, 16]: 7.28 ± 0.47 mM
- Delta FPG Treatment Day 13 vs Day −1 [2, 17]: −5%
- FPG Day 13 [2, 17]: 6.90 ± 0.24 mM
- FPG Treatment vs Vehicle Day 13 [2, 17]: −10%^
- FPG Day −1 [2, 18]: 7.20 ± 0.71 mM
- Delta FPG Treatment Day 13 vs Day −1 [2, 19]: −13%
- FPG Day 13 [2, 19]: 6.28 ± 0.31 mM
- FPG Treatment vs Vehicle Day 13 [2, 19]: −18%^1
- FPG Day −1 [2, 20]: 7.63 ± 0.55 mM
- Delta FPG Treatment Day 13 vs Day −1 [2, 21]: −21%
- FPG Day 13 [2, 21]: 6.05 ± 0.15 mM
- FPG Treatment vs Vehicle Day 13 [2, 21]: −21%^2
- effect on glucose tolerance of diet-induced obese mice [3]: increased the glucose tolerance
- AUC Day −1 ([3]; Methazolamide 10 mg/kg group, before dosing (Table 5-2)): 1038 ± 129 mM·min
- AUC Day −1 ([3]; Methazolamide 10 mg/kg group, before dosing (Table 8-2)): 1190 ± 62 mM·min
- AUC Day 13 [3, 22]: 901 ± 139 mM·min
- Delta AUC Treatment Day 13 vs Day −1 [3, 22]: −13%^
- Delta AUC Treatment vs Vehicle Day 13 [3, 22]: −8%
- AUC Day 13 [3, 23]: 1131 ± 95 mM·min
- AUC Day 13 Treat vs Veh [3, 23]: −6%
- Delta AUC Day 13 vs Day −1 [3, 23]: −5%
- AUC Day −1 [3, 16]: 1070 ± 77 mM·min
- AUC Day 13 [3, 17]: 619 ± 106 mM·min
- Delta AUC Treatment Day 13 vs Day −1 [3, 17]: −42%^1
- Delta AUC Treatment vs Vehicle Day 13 [3, 17]: −37%^1
- AUC Day −1 [3, 18]: 1073 ± 112 mM·min
- AUC Day 13 [3, 19]: 710 ± 87 mM·min
- Delta AUC Treatment Day 13 vs Day −1 [3, 19]: −34%^1
- Delta AUC Treatment vs Vehicle Day 13 [3, 19]: −27%^1
- AUC Day −1 [3, 20]: 1080 ± 59 mM·min
- AUC Day 13 [3, 21]: 691 ± 60 mM·min
- Delta AUC Treatment Day 13 vs Day −1 [3, 21]: −36%^2
- Delta AUC Treatment vs Vehicle Day 13 [3, 21]: −29%^1
- difference in body weight between treated groups [4]: no difference in body weight
- FPG Day 0 (db/db mice; before dosing (Table 9-1)): 23.93 ± 1.6 mM
- FPG Day 0 (db/db mice; before dosing (Table 9-2)): 23.93 ± 1.6 mM
- Delta FPG Treatment Day 8 vs Day 0 (db/db mice; [17]): −32%^1
- Delta FPG Treatment Day 18 vs Day 0 (db/db mice; [17]): −29%^1
- FPG Day 8 (db/db mice; [17]): 16.30 ± 1.8 mM
- FPG Day 18 (db/db mice; [17]): 17.00 ± 2.5 mM
- FPG Treatment vs Vehicle Day 8 (db/db mice; [17]): −30%^4
- FPG Treatment vs Vehicle Day 18 (db/db mice; [17]): −38%^3
- effect on fasting plasma glucose levels of db/db mice (db/db mice; after 8 days of treatment): reduced the fasting plasma glucose levels
- effect on fasting plasma glucose levels of db/db mice (db/db mice; after 18 days of treatment): reduced the fasting plasma glucose levels
- difference in body weight vs Vehicle group [5]: no difference in body weight
